Data set [1] deals with Frings audiogenic seizure-susceptible mice. Briefly: Frings audiogenic seizure (AGS)-susceptible mouse model. It counts as in vivo. The note with it: Mus musculus, ip, sound-induced seizures. An excerpt: Frings audiogenic seizure (AGS)-susceptible mice model examines the ability of an investigational drug to alter the onset and/or severity of seizures in a genetic mouse model of seizure susceptibility. Mice are genetically susceptible to sound-induced reflex seizures. Their seizure phenotype is characterized by wild running, loss of righting reflex, tonic flexion, and tonic extension in response to high-intensity sound stimulation. […] For example, the prototypical anticonvulsants phenytoin and ethosuximide display widely divergent clinical spectrums in humans, but are both active against sound-induced seizures in mice. Yet, the preclinical utility of this animal model rests in the useful information that can be obtained within a genetically susceptible model of seizures. Further, efficacy in this model provides proof of concept of brain bioavailability following systemic administration. The Frings AGS-susceptible mouse has a well-validated epilepsy phenotype that makes it particularly useful as a screening model. Beginning at about 21 days of age, Frings AGS-susceptible mice display prominent seizure activity in response to a high-intensity sound stimulus. They then remain susceptible to sound throughout their life. This is in stark contrast to the DBA2J AGS-susceptible mouse, which is the other common model of sound-induced seizures, as DBA2J mice are only susceptible to sound-induced seizures during a narrow developmental window (post-natal days 18-30). Thus, the Frings AGS-susceptible mouse seizures respond to a wide range of CNS-active drugs and display sound-induced seizures throughout their lifetime. In this regard, Frings AGS-susceptible mice are a highly useful screening model for the identification and characterization of compounds potentially effective against inherited epilepsy.
Male and female Frings audiogenic seizure-susceptible mice (18-25 g) are maintained in an in-house colony at the University of Utah. For each screening test, groups of 8 mice each are treated i.p. with varying doses of the investigational compound. At the time of peak effect as determined in the MES test (Test 4 in CF1 mice), individual mice are placed in a round plexiglass jar (diameter, 15 cm, height, 18 cm) and exposed to a sound stimulus of 110 decibels (11 KHz) delivered for 20 sec. Mice are observed for 25 sec for the presence or absence of hind limb tonic extension. Mice not displaying hind limb tonic extension are considered protected. The severity of a seizure may also be quantitated by assigning a numerical score to the observed response, e.g. no response—0; wild running for <10 sec—1; wild running for >10 sec—2; clonic seizure—3; forelimb extension/hind limb flexion—4; tonic seizure—5.

The subject of another data set is Male Sprague-Dawley rats. The experiment in a line: Maximal Electroshock Seizure (MES) rat model. As to conditions: po, 4 hours. In kind it is in vivo. As to the method: (§1) Male, Sprague-Dawley rats and CD-1 mice were used for all studies. All animals were allowed ad-lib access to food and water except during experiment. Animals were housed within an animal vivarium maintained under a 12 h light:dark cycle (lights on: 07:00 h), and all experiments were conducted in the animals light phase. For all experiments, animals were habituated to the vivarium for a minimum of 72 h before experimentation. The experimental procedures used in the present investigation were conducted under the Association for Assessment and Accreditation of Laboratory Animal Care (AAALAC) and the Canadian Council on Animal Care (CCAC) guidelines.
(§2) All compounds were sonicated in 5% Tween 80® in saline or methylcellulose 0.5% (wgt/vol), using MC and sterile water and injected in a dose volume of 5 ml/kg or 10 ml/kg (rat), and 10 ml/kg (mouse). Drugs were administered by either the oral, intraperitoneal or intravenous route.
Male Sprague-Dawley rats of body weight 80-100 g were used for these studies. Each experiment was conducted over 3 consecutive days. On day 1 and 2, each rat received a single electrical stimulus (150 mA, 0.2 s duration, 60 Hz) via corneal electrodes moistened with saline (Shock stimulator type 221: Harvard apparatus). […] Typically this reflected approximately 70-90% of the initial group.
(§3) On the test day following a defined drug pretreatment period, rats received a maximal electroshock (150 mA, 0.2 s duration, 60 Hz) via corneal electrodes. Protection was defined as absence of a full tonic seizure within 10 s of stimulus delivery. Twenty minutes before the MES procedure, the animals were tested on a fixed speed rotorod (best score from 3 trials at 8 r.p.m, trial duration=60 s) to give an early assessment of drug effect on gross motor function.
On the technique in general: The maximal electroshock test induces tonic seizures with an electrical stimulus.

The nature of data set [2]: Fixed speed rotorod, gross motor function (rat). The note with it: male, Sprague-Dawley, in vivo, po. As to the method:
as §3

Another data set has as its system MTLE mice. The experiment in a line: Model of mesial temporal lobe epilepsy (mTLE), hippocampal paroxysmal discharges. The note with it: after 600 mg/kg, mice 4 weeks after intra-hippocampal KA. In kind it is in vivo, mouse. An excerpt: The MTLE mouse model recapitulates many of the characteristics observed in human patients with temporal lobe epilepsy (TLE). The MTLE mouse is characterized by an initial neurotoxic event, a unilateral intrahippocampal injection of kainic acid (KA) into the dorsal hippocampus, which induces non-convulsive SE lasting several hours. This initial event is followed by a latent phase. Two to three weeks after KA injection, spontaneous recurrent hippocampal paroxysmal discharges (HPD) are only recorded in the epileptic hippocampus and remain stable and stereotyped for the whole life of the animal. These HPDs occur spontaneously about 30-60 times per hour when the animals are in a state of quiet wakefulness, generally last 15-20 sec and are associated with behavioral arrest and/or mild motor automatisms. Adult, male […] mice are stereotaxically injected with kainate (1 nmol in 100 nL) and implanted with 1 bipolar electrode in the dorsal hippocampus, and then allowed to recover for four weeks prior to evaluation in the screening protocol. Using a group size of 4 MTLE mice per dose of investigational compound, the compounds are typically first tested using the 6 Hz 44 mA ED50 value. […] For all acute studies, drug conditions are counter-balanced in MTLE mice over a two week period using a Latin square dosing protocol. Animals are used as their own controls. Digital EEG recordings are performed on freely moving animals for 20 minutes pre-injection (reference period) and 90 minutes post-injection. Data are analyzed for the period of 10 minutes before and 10 minutes after peak time of effect of the investigational compound, as determined from the 6 Hz 44 mA seizure test. The effects of the injected compound are compared to the reference period. Any accompanying effect on animal behavior is noted. Data are presented as the raw number of HPDs during the analyzed 20 min period (10 minutes before and 10 minutes after peak time of effect of compound) for each MTLE mouse, group mean number of HPDs, and effect on suppression as represented by percent of baseline HPD values.

In a further data set the test system is CD-1 mice. The experiment in a line: s.c Pentylenetetrazole (PTZ) mouse model. The note with it: ip, PTZ 85 mg/kg s.c. In kind it is in vivo. As to the method:
as §1, §2
Sixty minutes following drug or vehicle pretreatment, all mice received a single subcutaneous injection of pentylenetetrazol (PTZ; 85 mg/kg). The animals were then transferred to single observation cages (dimension: 11.5″×7.5″×5″) and observed continuously for 30 min. […] In the event of a seizure, the onset latency from PTZ injection was recorded.

The subject of data set [3] is mouse. As to conditions: literature report; cited from earlier work.
For data set [4], the system named is mouse. As to conditions: literature report; cited from earlier work. This is another data set of the same source.
Data set [5] deals with Frings audiogenic seizure-susceptible mice. The note with it: general statement on prototypical anticonvulsants; cited from earlier work.

We go through eleven compounds from patent US10428030B2, “Heterocycle derivatives and their use for the treatment of CNS disorders” (Trillium Therapeutics Inc., priority 2015, dated 2019).

What is called ED50 is the dose at which the effect has come halfway, by size or by number of responders. Lower therefore signals an effect at a small dose.

Where only a bound is given, the exact number is not on record here.

Compound `NCC1(CC(=O)O)CCCCC1` [Gabapentin] returned an ED50 in data set [1] of 91.1 mg/kg.

`O=C1Nc2ccc(OCc3ccccc3)cc2OC1(F)F` [I(D), 7-Benzyloxy-2,2-difluoro-4H-benzo[1,4]oxazin-3-one]: in the data set with Male Sprague-Dawley rats, it took a dose of 30.5 ± 0.8 mg/kg to reach the 50% effect level (ED50). The compound further displayed an ED50 at 4 hours in data set [2] of more than 120 mg/kg.

For `CC[C@@H](C(N)=O)N1CCCC1=O` [Levetiracetam, reference compound], the “Effect (% baseline)” value in the data set with MTLE mice (HPD) stood at 68.7 % baseline. Moreover, the “Mean HPD Counts” value in the data set on MTLE mice was 14.3. As for `O=C1COc2cc(OCc3ccccc3)ccc2N1` [Compound 1, 7-Benzyloxy-4H benzo[1,4]oxazin-3-one, reference compound], the ED50 with Male Sprague-Dawley rats and in the data set on CD-1 mice was more than 300 mg/kg throughout. Turning to `O=C1CCc2cc(OCc3ccccc3)ccc2N1`, the “activity in mouse electroshock seizure (MES) model” value with mouse [3] is “active”. Moreover, the “activity in pentylenetetrazole (PTZ) model” value with mouse [4] is “active”. Regarding `O=C1NC(=O)C(c2ccccc2)(c2ccccc2)N1` [Phenytoin], the ED50 in data set [1] came out at 3.8 mg/kg. The “activity against sound-induced seizures in mice” value in data set [5] is reported as “active”. Compound `CCC1(C)CC(=O)NC1=O` (centres unmarked) [Ethosuximide] returned a median effective dose (ED50) in data set [1] of 328 mg/kg. In data set [5], the “activity against sound-induced seizures in mice” value is “active”. As for `Nc1nnc(-c2cccc(Cl)c2Cl)c(N)n1` [Lamotrigine], it took a dose of 2.39 mg/kg to reach the 50% effect level in data set [1] (ED50). The compound `CCCC(CCC)C(=O)O` [Valproic Acid] registered an ED50 in data set [1] of 155 mg/kg. Consider `NC(=O)OCC(COC(N)=O)c1ccccc1` [Felbamate], for which, in data set [1], the ED50 came to 10 mg/kg.

For `NC(=O)N1c2ccccc2C=Cc2ccccc21` [Carbamazepine], in data set [1], the ED50 was determined as 11.2 mg/kg.
